Experimental data taken from ChEMBL document CHEMBL1201862, “PubChem BioAssay data set” (2004).
Activity calls are given as the source filed them.

How the values were obtained:
[1] = biological target: T1, Protein RecA (Mycobacterium tuberculosis, UniProt P9WHJ3); test: Fluorescence Cell-Free Homogeneous Dose Retest to Identify Inhibitors of RecA-Intein Splicing Activity. [Related pubchem assays (depositor defined):AID2097, AID2223, AID489010, AID492950]; type: functional
T1 sequence (P9WHJ3 whole entry): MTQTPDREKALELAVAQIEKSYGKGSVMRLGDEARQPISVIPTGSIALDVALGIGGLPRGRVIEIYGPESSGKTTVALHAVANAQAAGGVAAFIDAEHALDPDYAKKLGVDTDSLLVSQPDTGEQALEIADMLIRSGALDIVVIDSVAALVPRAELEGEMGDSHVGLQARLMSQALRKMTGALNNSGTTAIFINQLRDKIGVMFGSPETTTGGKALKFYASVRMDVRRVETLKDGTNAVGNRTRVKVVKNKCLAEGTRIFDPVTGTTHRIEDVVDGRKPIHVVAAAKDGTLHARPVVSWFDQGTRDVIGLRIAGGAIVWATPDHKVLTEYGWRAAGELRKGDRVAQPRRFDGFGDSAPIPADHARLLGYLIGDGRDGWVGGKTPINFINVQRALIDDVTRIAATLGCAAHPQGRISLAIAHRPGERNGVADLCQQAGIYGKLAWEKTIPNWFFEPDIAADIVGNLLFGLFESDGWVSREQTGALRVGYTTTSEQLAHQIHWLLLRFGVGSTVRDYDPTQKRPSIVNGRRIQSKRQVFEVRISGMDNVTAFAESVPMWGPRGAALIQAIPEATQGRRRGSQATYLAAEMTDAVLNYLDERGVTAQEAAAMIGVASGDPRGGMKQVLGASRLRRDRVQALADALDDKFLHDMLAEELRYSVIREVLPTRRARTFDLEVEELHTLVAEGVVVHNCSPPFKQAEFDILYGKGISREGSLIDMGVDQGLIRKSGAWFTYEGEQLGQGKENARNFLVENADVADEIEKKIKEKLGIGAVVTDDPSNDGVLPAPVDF

[2] = biological target: T2, Replicative DNA helicase DnaB (Mycobacterium tuberculosis, UniProt P9WMR3); test: DnaB intein splicing inhibitors, dose response, biochemical, cell-free fluorescence (AID 449749); type: functional
T2 sequence (P9WMR3 whole entry): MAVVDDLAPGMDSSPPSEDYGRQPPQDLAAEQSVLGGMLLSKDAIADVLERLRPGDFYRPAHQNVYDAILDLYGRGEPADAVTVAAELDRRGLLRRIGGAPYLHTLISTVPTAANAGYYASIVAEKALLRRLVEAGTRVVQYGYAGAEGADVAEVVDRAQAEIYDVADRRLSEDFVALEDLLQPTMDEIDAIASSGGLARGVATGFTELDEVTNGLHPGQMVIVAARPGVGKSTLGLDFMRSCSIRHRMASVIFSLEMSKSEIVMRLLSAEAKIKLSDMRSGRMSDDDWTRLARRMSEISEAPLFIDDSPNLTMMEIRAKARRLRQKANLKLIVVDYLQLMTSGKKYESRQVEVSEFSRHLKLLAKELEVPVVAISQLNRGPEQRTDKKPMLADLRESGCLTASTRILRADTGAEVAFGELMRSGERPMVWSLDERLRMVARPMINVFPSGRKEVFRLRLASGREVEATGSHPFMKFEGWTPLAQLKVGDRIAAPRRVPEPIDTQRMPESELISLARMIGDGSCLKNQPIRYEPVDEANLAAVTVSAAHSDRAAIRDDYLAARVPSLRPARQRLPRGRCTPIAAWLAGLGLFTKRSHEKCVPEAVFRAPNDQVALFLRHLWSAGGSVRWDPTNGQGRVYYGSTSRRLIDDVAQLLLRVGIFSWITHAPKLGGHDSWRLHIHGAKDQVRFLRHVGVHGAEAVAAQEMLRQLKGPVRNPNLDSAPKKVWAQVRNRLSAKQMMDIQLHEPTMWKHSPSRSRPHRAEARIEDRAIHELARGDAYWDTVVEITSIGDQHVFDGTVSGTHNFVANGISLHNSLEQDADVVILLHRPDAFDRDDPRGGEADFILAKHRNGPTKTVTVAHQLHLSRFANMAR

[3] = biological target: Hexokinase HKDC1 (Homo sapiens, UniProt Q2TB90); test: HKDC1 hexokinase inhibitors, dose response, biochemical, W721R variant (AID 504729); type: functional
Chain of Hexokinase HKDC1 (Q2TB90 whole entry): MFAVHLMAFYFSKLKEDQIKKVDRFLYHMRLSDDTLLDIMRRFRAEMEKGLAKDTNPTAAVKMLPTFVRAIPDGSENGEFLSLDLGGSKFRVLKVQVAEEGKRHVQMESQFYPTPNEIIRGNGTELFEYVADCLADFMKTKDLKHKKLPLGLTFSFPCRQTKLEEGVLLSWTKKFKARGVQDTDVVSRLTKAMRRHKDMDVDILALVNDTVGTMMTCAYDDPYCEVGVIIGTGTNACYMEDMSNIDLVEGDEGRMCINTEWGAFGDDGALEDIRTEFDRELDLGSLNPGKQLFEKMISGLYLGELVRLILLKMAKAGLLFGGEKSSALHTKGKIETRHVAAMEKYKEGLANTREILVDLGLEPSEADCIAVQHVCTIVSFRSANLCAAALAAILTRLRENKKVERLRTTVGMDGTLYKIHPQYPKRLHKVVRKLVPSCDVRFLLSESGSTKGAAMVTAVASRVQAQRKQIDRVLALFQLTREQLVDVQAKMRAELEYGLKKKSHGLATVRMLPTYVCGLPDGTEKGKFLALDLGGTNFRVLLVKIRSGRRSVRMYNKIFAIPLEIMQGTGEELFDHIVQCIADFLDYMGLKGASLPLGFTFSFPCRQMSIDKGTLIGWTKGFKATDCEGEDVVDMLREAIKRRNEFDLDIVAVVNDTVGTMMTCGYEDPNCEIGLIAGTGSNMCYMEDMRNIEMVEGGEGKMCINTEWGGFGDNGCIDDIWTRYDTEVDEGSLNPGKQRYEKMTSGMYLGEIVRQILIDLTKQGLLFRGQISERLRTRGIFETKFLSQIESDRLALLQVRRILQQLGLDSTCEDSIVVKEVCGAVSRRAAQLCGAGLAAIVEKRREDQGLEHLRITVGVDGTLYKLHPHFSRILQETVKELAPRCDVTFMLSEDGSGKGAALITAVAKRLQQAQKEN

[4] = biological target: Dual specificity protein phosphatase 3 (Homo sapiens, UniProt P51452); test: VHR1 inhibitor Ki determination, SAR follow-up, biochemical, colorimetric (AID 2004)
[5] = biological target: X-box-binding protein 1 (Homo sapiens, UniProt P17861); type: functional, Cricetulus griseus;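 further: confirmatory dose-response counter-screen serving a CHOP assay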
Chain of X-box-binding protein 1 (P17861 whole entry): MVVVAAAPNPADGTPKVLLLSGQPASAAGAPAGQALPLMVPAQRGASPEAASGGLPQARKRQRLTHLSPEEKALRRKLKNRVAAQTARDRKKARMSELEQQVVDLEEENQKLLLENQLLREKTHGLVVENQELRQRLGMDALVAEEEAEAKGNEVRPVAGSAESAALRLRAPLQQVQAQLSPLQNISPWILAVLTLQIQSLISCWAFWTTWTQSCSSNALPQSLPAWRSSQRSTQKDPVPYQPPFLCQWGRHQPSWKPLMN

[6] = biological target: T3, Voltage-gated N-type calcium channel alpha-1B subunit/Amyloid beta A4 precursor protein-binding family A member 1 (Homo sapiens, UniProt Q00975+Q02410); test: disruptors of Mint-PDZ/N-type channel peptide interaction – biochemical, HTRF, set 2, SAR follow-up (AID 434980); type: functional
T3 sequence (Q00975 whole entry): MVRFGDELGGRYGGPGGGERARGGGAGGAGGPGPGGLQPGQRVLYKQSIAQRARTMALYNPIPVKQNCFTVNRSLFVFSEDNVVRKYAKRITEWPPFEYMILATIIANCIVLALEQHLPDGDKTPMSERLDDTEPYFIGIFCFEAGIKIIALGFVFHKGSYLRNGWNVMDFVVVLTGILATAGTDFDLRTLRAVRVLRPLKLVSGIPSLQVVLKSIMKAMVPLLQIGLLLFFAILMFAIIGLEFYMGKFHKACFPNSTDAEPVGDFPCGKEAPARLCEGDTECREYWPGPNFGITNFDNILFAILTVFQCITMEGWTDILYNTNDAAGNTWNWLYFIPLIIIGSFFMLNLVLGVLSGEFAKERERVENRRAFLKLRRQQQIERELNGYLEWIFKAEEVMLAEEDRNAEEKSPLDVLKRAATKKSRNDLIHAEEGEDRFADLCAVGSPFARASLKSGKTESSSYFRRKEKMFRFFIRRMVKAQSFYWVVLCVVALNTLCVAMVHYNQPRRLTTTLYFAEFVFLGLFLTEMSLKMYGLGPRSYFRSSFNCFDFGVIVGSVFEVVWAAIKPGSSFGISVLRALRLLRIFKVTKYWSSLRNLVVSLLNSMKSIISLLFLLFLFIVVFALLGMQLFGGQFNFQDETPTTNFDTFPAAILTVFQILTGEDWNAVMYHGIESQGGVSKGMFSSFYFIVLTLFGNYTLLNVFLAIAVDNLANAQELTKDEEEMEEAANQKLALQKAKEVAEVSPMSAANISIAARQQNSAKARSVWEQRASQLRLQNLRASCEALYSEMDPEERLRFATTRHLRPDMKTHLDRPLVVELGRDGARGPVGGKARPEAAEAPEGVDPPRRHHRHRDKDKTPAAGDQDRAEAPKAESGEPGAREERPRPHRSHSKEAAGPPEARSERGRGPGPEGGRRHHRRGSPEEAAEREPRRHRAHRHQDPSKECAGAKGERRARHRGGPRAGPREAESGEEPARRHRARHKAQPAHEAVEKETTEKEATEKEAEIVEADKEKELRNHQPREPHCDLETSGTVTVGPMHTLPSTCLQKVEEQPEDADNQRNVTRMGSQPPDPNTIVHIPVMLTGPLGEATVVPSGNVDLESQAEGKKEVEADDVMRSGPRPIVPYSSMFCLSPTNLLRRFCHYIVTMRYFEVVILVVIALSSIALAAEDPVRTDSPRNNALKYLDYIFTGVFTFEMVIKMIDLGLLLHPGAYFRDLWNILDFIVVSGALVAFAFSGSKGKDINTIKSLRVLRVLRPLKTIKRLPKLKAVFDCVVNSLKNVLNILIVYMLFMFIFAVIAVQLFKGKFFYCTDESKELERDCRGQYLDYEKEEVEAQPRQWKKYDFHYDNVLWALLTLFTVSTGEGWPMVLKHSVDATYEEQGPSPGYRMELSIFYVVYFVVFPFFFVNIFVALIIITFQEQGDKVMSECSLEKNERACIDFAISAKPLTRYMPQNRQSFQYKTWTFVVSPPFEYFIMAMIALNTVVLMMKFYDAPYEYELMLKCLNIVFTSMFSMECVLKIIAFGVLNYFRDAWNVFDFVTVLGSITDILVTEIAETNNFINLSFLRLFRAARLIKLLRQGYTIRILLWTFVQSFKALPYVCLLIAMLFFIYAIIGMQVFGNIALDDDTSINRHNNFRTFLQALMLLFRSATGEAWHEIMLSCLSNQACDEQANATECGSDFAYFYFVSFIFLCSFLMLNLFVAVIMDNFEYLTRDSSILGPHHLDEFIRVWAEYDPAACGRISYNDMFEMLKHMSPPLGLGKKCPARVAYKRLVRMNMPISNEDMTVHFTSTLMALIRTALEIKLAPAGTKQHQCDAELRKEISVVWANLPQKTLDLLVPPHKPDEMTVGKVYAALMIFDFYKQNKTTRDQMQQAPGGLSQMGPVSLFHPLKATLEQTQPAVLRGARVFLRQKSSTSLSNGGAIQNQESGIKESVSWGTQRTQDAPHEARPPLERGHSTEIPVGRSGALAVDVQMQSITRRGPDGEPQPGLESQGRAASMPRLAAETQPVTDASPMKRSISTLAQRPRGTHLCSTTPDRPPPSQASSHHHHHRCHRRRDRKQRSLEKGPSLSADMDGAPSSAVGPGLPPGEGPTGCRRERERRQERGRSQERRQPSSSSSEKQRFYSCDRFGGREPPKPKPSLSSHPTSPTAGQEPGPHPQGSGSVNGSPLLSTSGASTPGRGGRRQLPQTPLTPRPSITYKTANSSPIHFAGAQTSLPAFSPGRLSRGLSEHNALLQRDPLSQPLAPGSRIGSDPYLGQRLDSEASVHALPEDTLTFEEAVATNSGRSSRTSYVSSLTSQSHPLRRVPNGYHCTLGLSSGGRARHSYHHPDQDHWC
T3 sequence (Q02410 whole entry): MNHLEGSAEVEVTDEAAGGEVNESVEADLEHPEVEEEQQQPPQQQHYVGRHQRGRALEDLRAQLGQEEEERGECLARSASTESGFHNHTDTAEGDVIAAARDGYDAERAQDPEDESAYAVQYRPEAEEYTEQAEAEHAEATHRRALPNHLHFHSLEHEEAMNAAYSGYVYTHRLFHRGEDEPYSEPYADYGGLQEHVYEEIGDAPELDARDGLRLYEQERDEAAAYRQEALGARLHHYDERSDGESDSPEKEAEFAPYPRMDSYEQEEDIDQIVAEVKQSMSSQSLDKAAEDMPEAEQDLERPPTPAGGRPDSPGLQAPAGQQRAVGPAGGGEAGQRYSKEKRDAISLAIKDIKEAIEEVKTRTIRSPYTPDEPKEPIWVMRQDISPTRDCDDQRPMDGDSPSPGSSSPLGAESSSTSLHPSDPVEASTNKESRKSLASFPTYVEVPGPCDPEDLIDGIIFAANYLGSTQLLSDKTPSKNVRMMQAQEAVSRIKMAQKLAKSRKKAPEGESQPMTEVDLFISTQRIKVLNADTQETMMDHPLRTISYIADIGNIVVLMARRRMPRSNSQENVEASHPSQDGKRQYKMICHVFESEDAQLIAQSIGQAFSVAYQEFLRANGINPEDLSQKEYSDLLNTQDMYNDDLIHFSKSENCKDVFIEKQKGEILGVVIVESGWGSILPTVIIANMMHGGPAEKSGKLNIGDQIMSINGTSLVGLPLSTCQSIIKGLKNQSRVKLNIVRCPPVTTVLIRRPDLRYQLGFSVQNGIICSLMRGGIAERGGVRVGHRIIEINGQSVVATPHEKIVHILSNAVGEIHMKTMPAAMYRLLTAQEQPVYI

[7] = biological target: T3, Voltage-gated N-type calcium channel alpha-1B subunit/Amyloid beta A4 precursor protein-binding family A member 1; test: disruptors of Mint-PDZ/N-type channel peptide interaction – biochemical, HTRF, SAR follow-up (AID 2489); type: functional
[8] = biological target: Intestinal-type alkaline phosphatase (Homo sapiens, UniProt P09923); test: Dose Response confirmation of uHTS hits from a small molecule inhibitors of human intestinal alkaline phosphatase via a luminescent assay. [Related pubchem assays (depositor defined):AID2544, AID2574]; type: functional
[9] = biological target: T4, Rac GTPase-activating protein 1 (Homo sapiens, UniProt Q9H0H5); test: MgcRacGAP GTPase-activating activity inhibitors, confirmation, biochemical, ADP Hunter fluorescence, primary and confirmatory (AID 624330); type: functional
T4 sequence (Q9H0H5 whole entry): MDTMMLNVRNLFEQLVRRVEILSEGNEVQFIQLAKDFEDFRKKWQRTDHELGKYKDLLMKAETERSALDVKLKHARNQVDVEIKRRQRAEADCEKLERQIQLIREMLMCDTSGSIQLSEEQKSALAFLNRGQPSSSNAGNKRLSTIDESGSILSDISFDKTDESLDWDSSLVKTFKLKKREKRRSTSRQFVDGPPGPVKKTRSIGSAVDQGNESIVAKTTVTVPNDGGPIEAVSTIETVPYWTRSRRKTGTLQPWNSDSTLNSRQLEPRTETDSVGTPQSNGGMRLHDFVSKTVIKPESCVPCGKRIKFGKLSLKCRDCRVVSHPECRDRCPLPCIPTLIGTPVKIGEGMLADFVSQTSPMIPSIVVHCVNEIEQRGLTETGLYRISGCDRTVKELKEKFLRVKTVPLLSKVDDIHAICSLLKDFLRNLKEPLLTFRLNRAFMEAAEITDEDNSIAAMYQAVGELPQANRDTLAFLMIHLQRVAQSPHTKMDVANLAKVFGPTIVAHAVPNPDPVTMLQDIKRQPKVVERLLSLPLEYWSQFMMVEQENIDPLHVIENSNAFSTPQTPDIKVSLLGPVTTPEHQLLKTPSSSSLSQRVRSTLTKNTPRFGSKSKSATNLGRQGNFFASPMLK

[10] = biological target: T5, DNA repair protein RAD52 homolog (Homo sapiens, UniProt P43351); type: functional, biochemical
T5 sequence (P43351 whole entry): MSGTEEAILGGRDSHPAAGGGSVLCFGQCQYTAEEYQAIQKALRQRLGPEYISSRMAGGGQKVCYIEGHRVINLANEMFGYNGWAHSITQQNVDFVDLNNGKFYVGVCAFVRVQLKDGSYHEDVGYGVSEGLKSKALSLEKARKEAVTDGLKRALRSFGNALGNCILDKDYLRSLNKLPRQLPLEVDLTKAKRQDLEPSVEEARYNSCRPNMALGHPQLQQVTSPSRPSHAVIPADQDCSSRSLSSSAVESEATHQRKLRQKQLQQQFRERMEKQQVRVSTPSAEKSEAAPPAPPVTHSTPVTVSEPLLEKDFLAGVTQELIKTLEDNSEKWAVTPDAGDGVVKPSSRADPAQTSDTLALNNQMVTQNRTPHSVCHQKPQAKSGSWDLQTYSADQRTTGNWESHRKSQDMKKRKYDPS

[11] = biological target: Endoplasmic reticulum aminopeptidase 1 (Homo sapiens, UniProt Q9NZ08); test: ERAP1 aminopeptidase inhibitors, dose response, biochemical, cherry-pick, set 2, plate reader (AID 743314)
[12] = HeLa cell cytotoxicity, dose response, cytotoxicity control for MgcRacGAP inhibitor project (AID 624300); type: functional
[13] = biological target: Nonstructural protein 1 (Influenza A virus, UniProt Q194T2); type: functional, Influenza A virus (A/California/07/2009(H1N1))
Chain of Nonstructural protein 1 (Q194T2 whole entry): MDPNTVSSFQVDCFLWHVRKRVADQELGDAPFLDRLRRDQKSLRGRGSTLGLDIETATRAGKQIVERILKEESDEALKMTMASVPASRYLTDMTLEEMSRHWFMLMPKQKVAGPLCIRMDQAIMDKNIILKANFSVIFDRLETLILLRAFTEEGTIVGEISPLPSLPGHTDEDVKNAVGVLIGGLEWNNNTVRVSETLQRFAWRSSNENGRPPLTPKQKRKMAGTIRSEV

[14] = HepG2 cell cytotoxicity, dose response, cytotoxicity control for Shn3 inhibitor project, CellTiter-Glo, cherry-picked (AID 624134); type: functional, cell-based
[15] = Cytotoxicity screening for potential Inhibitors of Bacterial Capsule Biogenesis. [Related pubchem assays (depositor defined):AID488970]; type: functional
[16] = control 3'UTR Renilla luciferase suppression, dose response, counter-screen for Shn3 inhibitor project, cell-based, Clone20-Shn3RL, cherry-picked (AID 624133); type: functional
[17] = Shn3 3'UTR reporter inhibitors, dose response, cell-based, Clone20 osteoblasts, firefly luciferase, cherry-picked (AID 624132); type: functional;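 further: firefly luciferase luminescence from reporter carrying the Shn3 3'UTR in osteoblasts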
[18] = IRAP inhibitors, dose response, selectivity assay for ERAP1 modulator project, biochemical, Leu-AMC fluorescence, cherry-picked samples, set 2 (AID 743340)
[19] = biological target: ORF 73 (Human herpesvirus 8, UniProt O40947); test: inhibitors of C-LANA binding to LBS DNA, dose response, biochemical, fluorescence polarization, cherry-picked samples (AID 504725); set-up: species or system Human gammaherpesvirus 8;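 further: fluorescence polarization of a labeled DNA duplex reporting LANA DNA binding; potency is for inhibitors that block LANA binding to the DNA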
[20] = biological target: Protein phosphatase methylesterase 1 (Homo sapiens, UniProt Q9Y570); test: PME-1 inhibitor potency by in-gel ABPP, dose response, selectivity assay for PME-1 inhibitor project, cell lysate, mouse brain cytosol, FP-rhodamine, panel member PME-1 Assay Panel member description: Inhibition of endogenously expressed PME-1 (AID 2366)
Chain of Protein phosphatase methylesterase 1 (Q9Y570 whole entry): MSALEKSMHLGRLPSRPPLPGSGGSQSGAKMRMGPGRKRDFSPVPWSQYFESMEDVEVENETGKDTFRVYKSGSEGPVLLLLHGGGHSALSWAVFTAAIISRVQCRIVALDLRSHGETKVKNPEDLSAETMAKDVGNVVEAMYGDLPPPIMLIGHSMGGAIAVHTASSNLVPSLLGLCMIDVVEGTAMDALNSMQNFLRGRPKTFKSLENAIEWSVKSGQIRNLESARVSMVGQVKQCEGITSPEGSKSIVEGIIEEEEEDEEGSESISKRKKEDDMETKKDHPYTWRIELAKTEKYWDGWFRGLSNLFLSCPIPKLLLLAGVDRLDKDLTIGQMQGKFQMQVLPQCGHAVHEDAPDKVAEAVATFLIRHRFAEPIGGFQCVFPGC

[21] = biological target: T6, Short transient receptor potential channel 4 (Mus musculus, UniProt Q9QUQ5); test: mouse TRPC4 channel inhibitors, dose response, cell-based, HEK293 TRPC4/mu-opioid, Fluo-4 calcium (AID 434942); type: functional;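 further: potency of inhibitors blocking the TRPC4 calcium response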
T6 sequence (Q9QUQ5 whole entry): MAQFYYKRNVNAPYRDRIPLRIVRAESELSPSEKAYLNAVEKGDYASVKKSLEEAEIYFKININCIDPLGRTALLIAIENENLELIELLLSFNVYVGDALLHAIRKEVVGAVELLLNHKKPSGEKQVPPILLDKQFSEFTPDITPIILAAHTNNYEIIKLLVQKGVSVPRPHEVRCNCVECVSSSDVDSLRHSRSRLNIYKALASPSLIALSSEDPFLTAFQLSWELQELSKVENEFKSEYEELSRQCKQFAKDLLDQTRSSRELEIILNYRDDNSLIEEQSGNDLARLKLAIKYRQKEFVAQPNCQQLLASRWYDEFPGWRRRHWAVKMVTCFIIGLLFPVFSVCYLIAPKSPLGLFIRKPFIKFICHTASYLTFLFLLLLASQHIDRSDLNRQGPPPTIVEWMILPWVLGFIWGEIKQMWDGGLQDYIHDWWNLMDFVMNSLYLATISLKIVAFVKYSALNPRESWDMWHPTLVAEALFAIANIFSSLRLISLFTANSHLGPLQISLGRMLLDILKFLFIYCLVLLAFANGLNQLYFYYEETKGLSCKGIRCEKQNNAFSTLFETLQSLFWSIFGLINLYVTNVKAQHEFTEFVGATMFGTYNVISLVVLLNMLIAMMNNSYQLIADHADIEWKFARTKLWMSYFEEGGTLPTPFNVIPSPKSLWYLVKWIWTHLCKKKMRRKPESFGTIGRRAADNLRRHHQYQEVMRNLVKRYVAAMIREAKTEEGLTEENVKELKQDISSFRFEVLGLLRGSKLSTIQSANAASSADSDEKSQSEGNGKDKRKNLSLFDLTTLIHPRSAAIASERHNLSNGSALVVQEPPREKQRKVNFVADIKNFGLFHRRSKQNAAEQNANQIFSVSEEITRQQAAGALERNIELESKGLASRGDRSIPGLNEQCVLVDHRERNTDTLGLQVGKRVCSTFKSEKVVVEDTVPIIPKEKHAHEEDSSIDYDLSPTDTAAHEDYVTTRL

SMILES: CC(OC(=O)c1cc(O)c2ccccc2c1O)C(=O)Nc1ccc(C(N)=O)cc1 (stereo unspecified)
- EC50 [1]: 4.51 µM (active)
- AC50 [2]: 5.11 µM (active)
- IC50 [3]: 52.7 µM (inactive)

SMILES: COc1ccc(C2C3C(=O)N(c4ccccc4)C(=O)C3N3CCCN23)cc1 (stereo unspecified)
- Ki [4]: 112 µM (inactive)

SMILES: Cc1csc(NC(=O)CSc2nnc3c4ccccc4nc(C(C)(C)C)n23)n1
- Absolute IC50 (XBP1) [5]: 10 µM

SMILES: CC12C=CC(C)(O1)C1C(=O)N(c3ccc(Cl)cc3)C(=O)C12 (stereo unspecified)
- IC50 [6]: > 56.8 µM (inactive)
- IC50 [7]: > 56.8 µM (inactive)

SMILES: COC(=O)CN1C(=O)C(O)(CC(=O)c2ccc(C)cc2)c2ccccc21 (stereo unspecified)
- IC50 [8]: > 100 µM (inactive)

SMILES: CCN(CCCl)c1cc(CN(C)C)cc(NC(=O)c2ccc(C(=O)Nc3cc(CN(C)C)cc(N(CC)CCCl)c3)cc2)c1
- IC50 [9]: 126 µM (active)
- AC50 [10]: 1.71 µM (active)
- AC50 [11]: 4.85 µM (active)
- CC50 [12]: 6.78 µM (active)
- IC50 [13]: 7.89 µM (active)
- AC50 [14]: 1.25 µM (active)
- CC50 [15]: < 0.38 µM (active)
- AC50 [16]: 13.1 µM (active)
- AC50 [17]: 2.65 µM (active)
- AC50 [18]: 19.4 µM (active)

SMILES: CCOc1ccc(-n2c(Cc3cc(O)nc(O)n3)nnc2SCc2cccnc2)cc1
- AC50 [19]: 76.4 µM (active)

SMILES: N#CC(C#N)=Cc1cccn1S(=O)(=O)c1ccccc1
- IC50 [20]: 20 µM (inactive)

SMILES: CCCCn1c2ccccc2c2nnc(SCCN3CCCCC3)nc21
- EC50 [21]: 6.68 µM (active)
